Target: E. coli DNA primase (Escherichia coli, UniProt P0ABS5)
Assay: Fluorescence-based E. coli DNA primase HTS assay in the presence of helicase (SYBR Green II)
Format: biochemical
Conditions: for inhibition of primase activity: 50 mM salt
Method: The reaction was carried out on a Costar 384-well black plate. The reaction volume was 30 μl. The final concentrations in the reaction were 50 mM Tris-HCl, pH 7.5, 10 mM Mg(OAc)2, 10 mM DTT, 25 mM potassium glutamate, 0.003% Brij-35, 200 nM DNA, 25 nM helicase, 75 nM E. coli DNA primase, 200 μM ATP and 200 μM GTP. To perform the HTS assay, 2 μl of compound/DMSO solution or aqueous DMSO solution was incubated with 23 μl of a reaction premix at room temperature for 15 min. The reaction premix was a 1.3× concentrated reaction solution without NTPs. After the incubation, 5 μl of a substrate solution with 1.2 mM ATP and 1.2 mM GTP were added to initiate the reaction. The reaction was incubated at room temperature for 40 min. Then 25 μl of a 30×SYBR Green II solution with 1.2 M NaCl was added and the fluorescence was measured (excitation at 485 nm, emission at 535 nm).
A dideoxy NTP was used as a positive inhibitory control for the primase reaction. […] Since ddATP competes with NTP (ATP in this case) in the primase reaction, the IC50 value was dependent on the substrate (ATP) concentration. Under the HTS conditions used, the IC50 of ddATP was 10 μM

Sequence of E. coli DNA primase (P0ABS5 whole entry): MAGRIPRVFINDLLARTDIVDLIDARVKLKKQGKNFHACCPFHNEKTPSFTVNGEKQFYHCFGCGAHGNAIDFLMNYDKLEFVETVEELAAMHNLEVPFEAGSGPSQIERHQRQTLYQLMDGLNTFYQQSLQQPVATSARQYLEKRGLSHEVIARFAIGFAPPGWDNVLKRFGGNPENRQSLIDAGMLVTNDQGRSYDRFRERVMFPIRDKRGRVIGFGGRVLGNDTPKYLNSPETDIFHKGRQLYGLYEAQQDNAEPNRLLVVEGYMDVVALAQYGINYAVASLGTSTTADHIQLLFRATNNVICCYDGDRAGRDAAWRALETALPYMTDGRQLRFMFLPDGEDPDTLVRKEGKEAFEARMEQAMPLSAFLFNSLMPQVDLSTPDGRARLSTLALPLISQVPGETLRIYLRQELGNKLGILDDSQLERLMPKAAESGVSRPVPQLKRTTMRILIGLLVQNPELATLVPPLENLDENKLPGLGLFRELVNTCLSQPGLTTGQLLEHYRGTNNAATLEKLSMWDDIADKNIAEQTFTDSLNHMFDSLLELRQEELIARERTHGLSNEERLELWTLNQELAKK

Row | Compound | inhibition of primase activity | also measured
1 | [Cl-].[K+] [KCl] | approximately 50% | –
2 | Nc1ncnc2c1ncn2[C@H]1CC[C@@H](COP(=O)(O)OP(=O)(O)OP(=O)(O)O)O1 [ddATP] | – | IC50 (HTS conditions, 200 μM ATP and 200 μM GTP, IC50 dependent on ATP concentration (competes with ATP), read-out: IC50 of inhibition of primase activity): 10 µM
3 | [Cl-].[Na+] [NaCl] | approximately 50% | –
4 | 5′-CTCTCTCTCTCTCTCTCTCTCTCTCTCTCTCTCTGCAAAGC-3′ [DNA7] | – | Km (DNA template concentration dependence, FIG. 5, read-out: apparent Km for DNA): 0.105 µM
